In US20230405095A1, “DOSING REGIMEN” (VIIV HEALTHCARE UK (NO. 7) LIMITED, priority 2022, published 2023):
“And” between values parts separate entries of the source, which are not always exact repeats. Equal entries are not always repeated. Where two headings read alike, the source gives them in different places.

Legend:
[1] = test system: HIV-1 strains; conditions: integrase strand transfer inhibitor; broad range of HIV-1 strains; cited from earlier work
[2] = CAB Cmax safety threshold; assay type: in vivo; conditions: CAB plasma concentration; read-out: safety threshold: Cmax not associated with any toxicity
[3] = Clinical PK of single SC injection of CAB200 with rHuPH20 (Studies 212482 and 218012); assay type: in vivo, healthy adult participants; conditions: SC with rHuPH20, dose level of 3200 mg or lower
Protocol: In a Phase 1 open-label, dose-escalation study to investigate the safety, tolerability and pharmacokinetics of single-dose administration of various CAB formulations with and without rHuPH20 in healthy adult participants, CAB200 at doses of 800, 1600 and 3200 mg have been administered with rHuPH20 (10,000 IU). rHuPH20 and CAB formulations were administered sequentially; subcutaneous (SC) administration by a health care provider (HCP) is via a butterfly needle and slow SC infusion in the abdominal SC tissue using a syringe pump.
A summary of CAB200 LA SC PK data with rHuPH20 is set forth in the Table below. • In Study 212482, single SC injection of CAB200 (2 mL/400 mg) with rHuPH20 (5000 units) was studied in Cohort 4 h. • In Study 218012, single SC injection of CAB200 with rHuPH20 was studied in cohorts A1 (4 mL/800 mg CAB200), A2 (8 mL/1600 mg CAB200) and A3 (16 mL/3200 mg CAB200). The dose of rHuPH20 was 10000 units. In both studies, rHuPH20 was injected first, followed by SC injection of CAB200.

[4] = Blood pharmacokinetics of cabotegravir after a single subcutaneous administration with or without rHuPH20; assay type: in vivo, male Sprague-Dawley rats; conditions: for Tmax / half-life / AUC(0-t) / Cmax / AUC (0-tlast) / T½: rat blood; for half-life: read-out: T½ (converted); for AUC(0-t): read-out: AUC (0-tlast)
Protocol: Cabotegravir (free acid) was supplied by the Department of Pharmaceutical Development, at GSK, Upper Providence (UP), as a wet bead milled suspension (WBM), of nominal 200 mg/mL active concentration, white to slightly pink in appearance to be used for subcutaneous (SC) injection. The test article was milled and supplied in an aqueous vehicle (see Table 1). The test article was filled into vials, stoppered, sealed and subjected to gamma sterilization at between 25-45 kGy.
Twelve male Sprague-Dawley rats (body weight approximately 275-300 grams upon arrival), from Charles River Laboratories, Raleigh, were used in this study. Rats were randomized by number one day prior to the start of study. All rats were euthanized at study end.
Dose volumes administered for cabotegravir (target concentration of 200 mg/mL) were based on animal weights obtained just prior to dosing to achieve a target dosage of 10 mg/kg (groups 1 and 2) and 5 mg/kg (groups 3 and 4). Test article was resuspended prior to dosing by inverting supplied vials and checking vial bottom for non-resuspended sediments. Syringes used to dose cabotegravir were weighed pre- and post-dose to determine exact amount of cabotegravir administered. Rats were lightly anesthetized under isoflurane for a short period to perform the dosing procedure. Injection sites were shaved immediately prior to dosing, wiped with alcohol and allowed to dry. For groups 1 and 3, the cabotegravir doses were injected subcutaneously into the lower scapular region. After removing the dosing needle, minimal, but adequate, pressure was applied to the skin at the injection site (i.e., to keep the site still and closed) for approximately 1 minute to enable coagulation and sealing of the puncture. The sites were observed immediately after the needle was withdrawn to note any dose leakage. For groups 2 and 4, the rHuPH20 was injected subcutaneously first (approximately 3000 units in 100 μL, these syringes were not weighed), immediately followed by the Cabotegravir injection with the goal of injecting both formulations in the same subcutaneous space of the lower scapular region. After removing the second dosing needle, minimal, but adequate, pressure was applied to the skin at the injection site (i.e., to keep the site still and closed) for approximately 1 minute to enable coagulation and sealing of the puncture. Any dose leakage was noted. Injection sites were monitored daily for the first week of study and then weekly for the remainder of the study and observations recorded. Body weights were recorded on day 0 and then weekly for the remainder of the study.
Blood samples were collected via lateral vein or tail tip amputation. On study Day 0, following subcutaneous injection, blood samples (approximately 75 μL/rat/time point) were collected into 500 μL K2 EDTA tubes at 1, 2, 4 and 8 hr. Samples were then collected at 24 hrs., 48 hrs., and on Days 3, 7, 14, 21, 28, 56 and 84. Exactly 75 μL of whole blood was pipetted into a new tube containing 75 μL of sterile water. Samples were vortexed and placed on dry ice immediately. Samples were stored at −80° C. until transferred to Yinghe Li (DMPK, US) for analysis.
Rat blood: water samples were analyzed for cabotegravir using an analytical method based on protein precipitation, followed by UPLC/MS/MS analysis. The lower limit of quantification (LLQ) for cabotegravir was 5 ng/mL using a 150 μL aliquot of rat blood: water with a higher limit of quantification (HLQ) of 20000 ng/mL. Analyst software version 1.7.1 was used to acquire and process LC-MS/MS data. The applicable analytical runs met all predefined run acceptance criteria.
Pharmacokinetic analysis of cabotegravir blood concentration-time data was performed by a non-compartmental method using Phoenix WinNonlin®, Version 8.1 software. All computations utilized nominal sampling times and doses for the study. […]

[5] = male, Sprague-Dawley, rat, whole blood, sc, 5 mg/kg, single SC 5 mg/kg, with rHuPH20 approx. 3000 units SC (Group 4), mean ± SD
[6] = male, Sprague-Dawley, rat, whole blood, sc, 5 mg/kg, single SC 5 mg/kg, without rHuPH20 (Group 3), individual animals
[7] = male, Sprague-Dawley, rat, whole blood, sc, 5 mg/kg, single SC 5 mg/kg, without rHuPH20 (Group 3), mean ± SD
[8] = male, Sprague-Dawley, rat, whole blood, sc, 10 mg/kg, single SC 10 mg/kg, with rHuPH20 approx. 3000 units SC (Group 2), mean ± SD
[9] = single SC 5 mg/kg, with rHuPH20 approx. 3000 units SC (Group 4), individual animals, 5 mg/kg
[10] = single SC 5 mg/kg, without rHuPH20 (Group 3), individual animals, 5 mg/kg
[11] = single SC 10 mg/kg, with rHuPH20 approx. 3000 units SC (Group 2), individual animals, 10 mg/kg
[12] = single SC 10 mg/kg, without rHuPH20 (Group 1), individual animals, 10 mg/kg

C[C@H]1CO[C@@H]2Cn3cc(C(=O)NCc4ccc(F)cc4F)c(=O)c(O)c3C(=O)N12 [Cabotegravir, N-((2,4-Difluorophenyl)methyl)-6-hydroxy-3-methyl-5,7-dioxo-2,3,5,7,11,11a hexahydro(1,3)oxazolo(3,2-a)pyrido(1,2-d)pyrazine-8-carboxamide]
potency [1]: subnanomolar
Cmax [2]: 22500 ng/mL
CAB SC Cmax versus safety threshold [3]: < 22500 ng/mL
Tmax ([4]; male, Sprague-Dawley, rat, whole blood, sc, 5 mg/kg, single SC 5 mg/kg, with rHuPH20 approx. 3000 units SC (Group 4), individual animals, read-out: Tmax): 14.2 days
half-life ([4]; male, Sprague-Dawley, rat, whole blood, sc, 5 mg/kg, single SC 5 mg/kg, with rHuPH20 approx. 3000 units SC (Group 4), individual animals): 10 days
AUC(0-t) [4, 5]: 2800 ± 993 µg·h/mL
Cmax ([4]; male, Sprague-Dawley, rat, whole blood, sc, 5 mg/kg, single SC 5 mg/kg, with rHuPH20 approx. 3000 units SC (Group 4), mean ± SD, read-out: Cmax): 3800 ± 1600 ng/mL
half-life [4, 5]: 7.5 days
Tmax ([4]; male, Sprague-Dawley, rat, whole blood, sc, 5 mg/kg, single SC 5 mg/kg, with rHuPH20 approx. 3000 units SC (Group 4), median, read-out: Tmax): 14.2 days
AUC(0-t) [4, 6]: 4540 µg·h/mL
Cmax ([4]; male, Sprague-Dawley, rat, whole blood, sc, 5 mg/kg, single SC 5 mg/kg, without rHuPH20 (Group 3), individual animals, read-out: Cmax): 7600 ng/mL
Tmax ([4]; male, Sprague-Dawley, rat, whole blood, sc, 5 mg/kg, single SC 5 mg/kg, without rHuPH20 (Group 3), individual animals, read-out: Tmax): 14.2 days
half-life [4, 6]: 8.33 days
AUC(0-t) [4, 7]: 4400 ± 903 µg·h/mL
Cmax ([4]; male, Sprague-Dawley, rat, whole blood, sc, 5 mg/kg, single SC 5 mg/kg, without rHuPH20 (Group 3), mean ± SD, read-out: Cmax): 7000 ± 1500 ng/mL
half-life [4, 7]: 8.33 days
Tmax ([4]; male, Sprague-Dawley, rat, whole blood, sc, 5 mg/kg, single SC 5 mg/kg, without rHuPH20 (Group 3), median, read-out: Tmax): 14.2 days
AUC(0-t) ([4]; male, Sprague-Dawley, rat, whole blood, sc, 10 mg/kg, single SC 10 mg/kg, with rHuPH20 approx. 3000 units SC (Group 2), individual animals): 6280 µg·h/mL
Cmax ([4]; male, Sprague-Dawley, rat, whole blood, sc, 10 mg/kg, single SC 10 mg/kg, with rHuPH20 approx. 3000 units SC (Group 2), individual animals, read-out: Cmax): 10000 ng/mL
Tmax ([4]; male, Sprague-Dawley, rat, whole blood, sc, 10 mg/kg, single SC 10 mg/kg, with rHuPH20 approx. 3000 units SC (Group 2), individual animals, read-out: Tmax): 14.2 days
AUC(0-t) [4, 8]: 7730 ± 1930 µg·h/mL
Cmax ([4]; male, Sprague-Dawley, rat, whole blood, sc, 10 mg/kg, single SC 10 mg/kg, with rHuPH20 approx. 3000 units SC (Group 2), mean ± SD, read-out: Cmax): 9100 ± 2100 ng/mL
half-life [4, 8]: 15 days
Tmax ([4]; male, Sprague-Dawley, rat, whole blood, sc, 10 mg/kg, single SC 10 mg/kg, with rHuPH20 approx. 3000 units SC (Group 2), median, read-out: Tmax): 14.2 days
AUC(0-t) ([4]; male, Sprague-Dawley, rat, whole blood, sc, 10 mg/kg, single SC 10 mg/kg, without rHuPH20 (Group 1), individual animals): 5640 µg·h/mL
Tmax ([4]; male, Sprague-Dawley, rat, whole blood, sc, 10 mg/kg, single SC 10 mg/kg, without rHuPH20 (Group 1), individual animals, read-out: Tmax): 14.2 days
half-life ([4]; male, Sprague-Dawley, rat, whole blood, sc, 10 mg/kg, single SC 10 mg/kg, without rHuPH20 (Group 1), mean ± SD (animal 12 excluded)): 13.8 days
AUC(0-t) ([4]; male, Sprague-Dawley, rat, whole blood, sc, 10 mg/kg, single SC 10 mg/kg, without rHuPH20 (Group 1), mean ± SD): 7320 ± 2320 µg·h/mL
Cmax ([4]; male, Sprague-Dawley, rat, whole blood, sc, 10 mg/kg, single SC 10 mg/kg, without rHuPH20 (Group 1), mean ± SD, read-out: Cmax): 8000 ± 3500 ng/mL
Tmax ([4]; male, Sprague-Dawley, rat, whole blood, sc, 10 mg/kg, single SC 10 mg/kg, without rHuPH20 (Group 1), median, read-out: Tmax): 14.2 days
AUC (0-tlast) [4, 9]: 3348 µg·h/mL and 1654 µg·h/mL and 3397 µg·h/mL
Cmax [4, 9]: 3200 ng/mL and 2600 ng/mL and 5700 ng/mL
Tmax [4, 9]: 7.08 days
T½ [4, 9]: 160 h and 140 h
AUC (0-tlast) [4, 10]: 5221 µg·h/mL and 3432 µg·h/mL
Cmax [4, 10]: 5200 ng/mL
Tmax [4, 10]: 7.08 days
T½ [4, 10]: 220 h and 170 h
AUC (0-tlast) [4, 11]: 7008 µg·h/mL and 9916 µg·h/mL
Cmax [4, 11]: 6800 ng/mL
T½ [4, 11]: 210 h and 360 h and 510 h
AUC (0-tlast) [4, 12]: 9970 µg·h/mL and 6333 µg·h/mL
Cmax [4, 12]: 7100 ng/mL and 12000 ng/mL and 5100 ng/mL
T½ [4, 12]: 430 h and 230 h and 1100^b^ h
systemic exposure with versus without administration of rHuPH20 ([4]; rats, single SC 5 and 10 mg/kg, rHuPH20 3000 U): similar
systemic exposure as defined by AUC: dose proportionality ([4]; rats, single SC, target doses of 5 and 10 mg/kg): approximately dose proportional
